Reference: US20240336568A1, “SELECTIVE PHD1 INHIBITOR COMPOUNDS, COMPOSITIONS, AND METHODS OF USE” (Akebia Therapeutics, Inc., priority 2021, published 2024)

Test system: full-length human prolyl-4-hydroxylase domain (PHD) enzymes, PHD1 and PHD2
Test: TR-FRET assay, selectivity of compounds for PHD1 over PHD2 (ratio of Kis calculated from IC50s)
Assay type: biochemical
Conditions: ratio of Kis (PHD2 Ki/PHD1 Ki), Kis calculated from TR-FRET IC50s by Cheng Prussoff equation; 1 uM 2-OG
Text: Time-resolved fluorescence resonance energy transfer (TR-FRET) assay was utilized to determine the enzymatic half maximal inhibitory concentration (IC50) value of PHD inhibitors against the full-length human prolyl-4-hydroxylase domain (PHD) enzymes, PHD1 and PHD2. The TR-FRET assay was developed based on the specific binding of hydroxylated HIF-la peptide with the complex formed by VHL, EloB and EloC (VBC), to generate a fluorescent signal. Terbium (Tb)-Donor (monoclonal antibody anti-6His-Tb-cryptate Gold) and D2-acceptor (streptavidin [SA]-D2) of TR-FRET are linked to the VBC complex and to HIF-1α peptide, respectively. The VBC complex binds specifically to the HIF-1α peptide when it is hydroxylated, allowing energy transfer from TR-FRET donor to acceptor (FIG. 1).
TR-FRET Reagents. Monoclonal antibody anti-6His-Tb-cryptate Gold (catalog #61HI2TLA) and streptavidin (SA)-D2 (catalog #610SADLA) were purchased from CisBio International (Bedford, MA, USA).
N-terminus biotinylated HIF-1α C35 synthetic peptide representing amino acids 547 to 581 and including the proline 564 PHD2 hydroxylation site was purchased from California Peptide Research (Salt Lake City, UT, USA).
VBC Complex. His-tagged recombinant VHL protein, EloB, EloC complex (His-VBC) was supplied by Axxam (Milan, Italy). Recombinant human VHL (National Center for Biotechnology Information [NCBI] accession number NP_00542.1) contained a His tag at the C-terminus of amino acids 55 to 213 and is referred to as VHL-His. VHL-His was co-expressed in E. coli with full-length human EloB (NCBI accession number Q15370.1) and full-length human EloC (NCBI accession number Q15369.1) and purified by affinity chromatography on a nickel-nitrilotriacetic acid (Ni-NTA) column as the His-VBC complex. Purity (˜80%) was assessed by sodium dodecyl sulfate polyacrylamide gel electrophoresis (SDS-PAGE).
PHD1. Recombinant human PHD1 protein (catalog #81064, Lot #24717001) was purchased from Active Motif (Carlsbad, CA, USA). PHD1 was expressed in a baculovirus expression system as the full-length protein (NCBI accession number NP_542770.2) with an N-terminal FLAG tag (molecular weight 44.9 kDa). Purity (>90%) was assessed by SDS-PAGE.
PHD2. The full-length human PHD2 enzyme was produced with a baculovirus infected insect cell (BIIC) expression system by Beryllium (Bedford, MA, USA). The PHD2 construct contained amino acids 1 to 426 of PHD2 (UniProt Knowledgebase[UniProtKB]/Swiss-Prot accession number Q9GZT9.1), and a His tag and a Tobacco Etch Virus (TEV) protease cleavage site at the N-terminus. The construct was expressed in Sf9 insect cells, purified by Ni-NTA column and digested with TEV protease to remove the His tag.
Compounds were preincubated with PHD enzyme in a 10 μL reaction volume in white 384-well Optiplate microplates (catalog #6007290, Perkin Elmer, Waltham, MA, USA). For this, 5 μL compound was serially diluted with dilution buffer (50 mM HEPES [4-(2-hydroxyethyl)-1-piperazineethanesulfonic acid] pH 7.5, 50 mM sodium chloride [NaCl], 0.01% Tween-20, 0.01% purified bovine serum albumin [BSA]) and mixed with 5 μL PHD enzyme mix prepared as a 4× concentrate in the dilution buffer containing PHD enzyme (60 nM PHD1, 20 nM PHD2, 140 nM PHD3), 40 μM ferrous ammonium sulfate (FAS), 4 mM sodium (Na) ascorbate. The plates were incubated for 30 minutes at room temperature without rotation.
Five microliters of the VBC/anti-6His-Tb-cryptate Gold mix prepared as a 4× concentrate in dilution buffer containing 20 nM His-VBC, 1.32 nM monoclonal antibody anti-6His-Tb-cryptate Gold was then added. This step was followed immediately by the addition of 5 μL of the HIF-1α C35 substrate mix prepared as a 4× concentrate in the dilution buffer containing 120 nM biotin-labeled HIF-1α C35, 132 nM SA-D2, 4 μM 2-oxoglutarate (2-OG) to reach a final reaction volume of 20 μL. […]

SMILES	Selectivity of PHD1 over PHD2 [fold]
CC(C)(CNC(=O)c1ncc(-c2ccc3ccncc3c2)cc1O)C(=O)O [compound 43, 3-(3-hydroxy-5-(isoquinolin-7-yl)picolinamido)-2,2-dimethylpropanoic acid]	~1875
Cc1ccc2ccc(-c3cnc(C(=O)NCC(C)(C)C(=O)O)c(O)c3)c(F)c2n1 [compound 44, 3-(5-(8-fluoro-2-methylquinolin-7-yl)-3-hydroxypicolinamido)-2,2-dimethylpropanoic acid]	~1833
Cc1ccc2cc(-c3cnc(C(=O)NCC(C)(C)C(=O)O)c(O)c3)ccc2n1 [compound 45, 3-(3-hydroxy-5-(2-methylquinolin-6-yl)picolinamido)-2,2-dimethylpropanoic acid]	~3740
CC(C)(CNC(=O)c1ncc(-c2ccc3nccnc3c2)cc1O)C(=O)O [compound 46, 3-(3-hydroxy-5-(quinoxalin-6-yl)picolinamido)-2,2-dimethylpropanoic acid]	~124
CC(C)(CNC(=O)c1ncc(-c2cn(CCCc3ccc(Cl)cc3)nn2)cc1O)C(=O)O [compound 47, 3-(5-(1-(3-(4-chlorophenyl)propyl)-1H-1,2,3-triazol-4-yl)-3-hydroxypicolinamido)-2,2-dimethylpropanoic acid]	~10
CC(CNC(=O)c1ncc(-c2ccc3ccccc3c2)cc1O)C(=O)O (centres unmarked) [compound 48, 3-(3-Hydroxy-5-(naphthalen-2-yl)picolinamido)-2-methylpropanoic acid]	~167
CC(CNC(=O)c1ncc(-c2cccc(Cl)c2)cc1O)C(=O)O (centres unmarked) [compound 49, 3-(5-(3-chlorophenyl)-3-hydroxypicolinamido)-2-methylpropanoic acid]	~12
CC(CNC(=O)c1ncc(-c2cnn(-c3ccccc3)c2)cc1O)C(=O)O (centres unmarked) [compound 50, 3-(3-hydroxy-5-(1-phenyl-1H-pyrazol-4-yl)picolinamido)-2-methylpropanoic acid]	~50
CC(C)(CNC(=O)c1nc(C#N)c(-c2cccc(Cl)c2)cc1O)C(=O)O [compound 51, 3-(5-(3-chlorophenyl)-6-cyano-3-hydroxypicolinamido)-2,2-dimethylpropanoic acid]	~4
CC(C)(CNC(=O)c1ncc(-c2cccc(NCCc3ccc(Cl)cc3)c2)cc1O)C(=O)O [compound 52, 3-(5-(3-((4-Chlorophenethyl)amino)phenyl)-3-hydroxypicolinamido)-2,2-dimethylpropanoic acid]	~31
CC(C)(CNC(=O)c1ncc(-c2cnc(-c3ccccc3)s2)cc1O)C(=O)O [compound 53, 3-(3-hydroxy-5-(2-phenylthiazol-5-yl)picolinamido)-2,2-dimethylpropanoic acid]	~1215
O=C(O)CCNC(=O)c1ncc(-c2cnn(-c3ccccc3)c2)cc1O [compound 54, 3-(3-hydroxy-5-(1-phenyl-1H-pyrazol-4-yl)picolinamido)propanoic acid]	~11
COc1cc2c(-c3cnc(C(=O)NCC(C)(C)C(=O)O)c(O)c3)cn(C)c2cn1 [compound 55, 3-(3-hydroxy-5-(5-methoxy-1-methyl-1H-pyrrolo[2,3-c]pyridin-3-yl)picolinamido)-2,2-dimethylpropanoic acid]	~96
CC(C)(CNC(=O)c1ncc(-c2scc3c2OCCO3)cc1O)C(=O)O [compound 56, 3-(5-(2,3-dihydrothieno[3,4-b][1,4]dioxin-5-yl)-3-hydroxypicolinamido)-2,2-dimethylpropanoic acid]	~44
CC(C)(CNC(=O)c1ncc(-c2ccc3c(=O)[nH]ncc3c2)cc1O)C(=O)O [compound 57, 3-(3-hydroxy-5-(1-oxo-1,2-dihydrophthalazin-6-yl)picolinamido)-2,2-dimethylpropanoic acid]	~64
CCOc1ccc2cc(-c3cnc(C(=O)NCC(C)(C)C(=O)O)c(O)c3)ccc2c1 [compound 58, 3-(5-(6-ethoxynaphthalen-2-yl)-3-hydroxypicolinamido)-2,2-dimethylpropanoic acid]	~911
CC(C)(CNC(=O)c1ncc(-c2ccc3cc(NS(C)(=O)=O)ccc3c2)cc1O)C(=O)O [compound 59, 3-(3-hydroxy-5-(6-(methylsulfonamido)naphthalen-2-yl)picolinamido)-2,2-dimethylpropanoic acid]	~88
Cc1c(-c2cnc(C(=O)NCC(C)(C)C(=O)O)c(O)c2)ccc2ccccc12 [compound 60, 3-(3-hydroxy-5-(1-methylnaphthalen-2-yl)picolinamido)-2,2-dimethylpropanoic acid]	~204
CC(C)c1ccc2sc(-c3cnc(C(=O)NCC(C)(C)C(=O)O)c(O)c3)cc2c1 [compound 61, 3-(3-hydroxy-5-(5-isopropylbenzo[b]thiophen-2-yl)picolinamido)-2,2-dimethylpropanoic acid]	~341
O=C(O)CCNC(=O)c1ncc(-c2ccc3ccccc3c2)cc1O [compound 62, 3-(3-hydroxy-5-(naphthalen-2-yl)picolinamido)propanoic acid]	~24
